Measurements published in PubChem BioAssay (NCI).
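Test compounds were applied to cells in 96-well plates for 48 hours at 5 doses. GI50 marks 50% less growth. Definition used: TGI = concentration required for complete inhibition of growth.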

How the values were obtained:
Assay in all cases: NCI-60 cell line screen, 48 h
[1] = tested on: NCI-H226 lung
[2] = tested on: NCI-H460 lung
[3] = tested on: NCI-H522 lung
[4] = tested on: NCI/ADR-RES ovarian
[5] = tested on: OVCAR-3 ovarian
[6] = tested on: OVCAR-4 ovarian
[7] = tested on: OVCAR-5 ovarian
[8] = tested on: PC-3 prostate
[9] = tested on: RPMI-8226 leukemia
[10] = tested on: RXF 393 renal
[11] = tested on: SF-268 CNS
[12] = tested on: SF-295 CNS
[13] = tested on: SF-539 CNS
[14] = tested on: SK-MEL-2 melanoma
[15] = tested on: SK-MEL-28 melanoma
[16] = tested on: SK-MEL-5 melanoma
[17] = tested on: SK-OV-3 ovarian
[18] = tested on: SN12C renal
[19] = tested on: SNB-19 CNS
[20] = tested on: SNB-75 CNS
[21] = tested on: SR leukemia
[22] = tested on: SW-620 colon
[23] = tested on: T-47D breast
[24] = tested on: TK-10 renal
[25] = tested on: U251 CNS
[26] = tested on: UACC-257 melanoma
[27] = tested on: UACC-62 melanoma
[28] = tested on: UO-31 renal

For `COC(=O)c1cccc(NC2=C(Cl)C(=O)c3nc(C)ccc3C2=O)c1`, the TGI [1] was 4.39 µM, the GI50 [2] was 18.5 µM and the TGI [2] was 41.5 µM. It also gave a GI50 [3] of 1.89 µM, a TGI [3] of 4.46 µM and a GI50 [4] of 2.25 µM. The TGI [4] was 6.28 µM, the GI50 [5] was 1.59 µM and the TGI [5] was 3.03 µM. It also gave a GI50 [6] of 1.42 µM, a TGI [6] of 2.89 µM and a GI50 [7] of 3.14 µM. The TGI [7] was 14.7 µM, the GI50 [8] was 2.8 µM and the TGI [8] was 10.3 µM. It also gave a GI50 [9] of 2.14 µM, a TGI [9] of 6 µM and a GI50 [10] of 1.57 µM. For the same molecule, the TGI [10] was 2.94 µM, the GI50 [11] was 2.76 µM and the TGI [11] was 9.59 µM. For the same molecule, the GI50 [12] was 15.8 µM, the TGI [12] was 29.9 µM and the GI50 [13] was 1.75 µM. For the same molecule, the TGI [13] was 3.27 µM, the GI50 [14] was 2.27 µM and the TGI [14] was 6.48 µM. It also gave a GI50 [15] of 1.96 µM, a TGI [15] of 3.71 µM and a GI50 [16] of 1.8 µM. It also gave a TGI [16] of 3.34 µM, a GI50 [17] of 12.5 µM and a TGI [17] of 25.2 µM. It also gave a GI50 [18] of 2.13 µM, a TGI [18] of 5.4 µM and a GI50 [19] of 10.8 µM. For the same molecule, the TGI [19] was > 100 µM, the GI50 [20] was 13.2 µM and the TGI [20] was 26.2 µM. The GI50 [21] was 1.83 µM, the TGI [21] was 4.62 µM and the GI50 [22] was 1.97 µM. For the same molecule, the TGI [22] was 4.03 µM, the GI50 [23] was 2.04 µM and the TGI [23] was 5.02 µM. For the same molecule, the GI50 [24] was 1.78 µM, the TGI [24] was 3.19 µM and the GI50 [25] was 3.27 µM. For the same molecule, the TGI [25] was 11.8 µM, the GI50 [26] was 1.57 µM and the TGI [26] was 3 µM. The GI50 [27] was 2.62 µM, the TGI [27] was 8.1 µM and the GI50 [28] was 1.44 µM. It also gave a TGI [28] of 2.79 µM.
